Measurements from BindingDB's records for doi:10.1111/cbdd.12580 (Sichuan University, 2015).

Key:
[1] = molecular target: T1, Acetylcholinesterase (Rattus norvegicus, UniProt P37136); assay: Modified Ellman Assay
T1 sequence (P37136 whole entry): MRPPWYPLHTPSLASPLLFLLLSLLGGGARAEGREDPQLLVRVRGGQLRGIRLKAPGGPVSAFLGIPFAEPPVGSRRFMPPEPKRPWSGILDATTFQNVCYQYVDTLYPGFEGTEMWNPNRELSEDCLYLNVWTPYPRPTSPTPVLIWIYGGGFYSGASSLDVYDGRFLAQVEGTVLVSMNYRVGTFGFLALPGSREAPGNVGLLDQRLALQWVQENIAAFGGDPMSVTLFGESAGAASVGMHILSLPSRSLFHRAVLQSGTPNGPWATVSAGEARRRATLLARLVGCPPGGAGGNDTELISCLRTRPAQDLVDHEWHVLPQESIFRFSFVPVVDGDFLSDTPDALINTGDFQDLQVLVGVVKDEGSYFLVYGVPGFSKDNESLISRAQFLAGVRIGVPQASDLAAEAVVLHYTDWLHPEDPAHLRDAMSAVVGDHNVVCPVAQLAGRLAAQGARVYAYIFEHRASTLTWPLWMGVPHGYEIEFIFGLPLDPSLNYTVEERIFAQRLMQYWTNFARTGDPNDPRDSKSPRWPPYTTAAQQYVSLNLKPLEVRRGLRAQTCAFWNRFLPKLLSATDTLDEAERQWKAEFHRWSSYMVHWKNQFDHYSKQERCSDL
Protocol: (§1) Then, 5,5'-dithiobis-2-nitrobenzoic acid (DTNB, 0.2%, 30 μL) (J&K Scientific) was added.

[2] = molecular target: Carboxylic ester hydrolase (Rattus norvegicus, UniProt Q9JKC1); assay: Modified Ellman Assay
Carboxylic ester hydrolase, sequence (Q9JKC1 whole entry): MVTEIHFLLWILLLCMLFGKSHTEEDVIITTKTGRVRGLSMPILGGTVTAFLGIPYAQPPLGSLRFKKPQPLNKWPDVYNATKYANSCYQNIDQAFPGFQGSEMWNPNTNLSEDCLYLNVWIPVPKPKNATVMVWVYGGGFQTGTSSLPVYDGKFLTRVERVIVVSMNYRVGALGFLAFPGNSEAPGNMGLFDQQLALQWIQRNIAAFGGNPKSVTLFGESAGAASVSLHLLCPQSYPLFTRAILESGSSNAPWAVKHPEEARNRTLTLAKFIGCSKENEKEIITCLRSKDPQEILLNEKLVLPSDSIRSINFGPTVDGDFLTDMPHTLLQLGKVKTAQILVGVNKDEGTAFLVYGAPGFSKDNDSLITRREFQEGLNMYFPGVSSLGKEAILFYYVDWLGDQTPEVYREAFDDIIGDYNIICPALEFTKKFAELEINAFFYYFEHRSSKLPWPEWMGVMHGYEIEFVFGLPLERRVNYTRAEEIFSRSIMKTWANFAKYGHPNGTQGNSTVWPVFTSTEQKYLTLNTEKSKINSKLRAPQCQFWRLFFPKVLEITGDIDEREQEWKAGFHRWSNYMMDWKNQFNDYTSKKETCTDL
Protocol: as §1

SMILES	IC50 [1] [µM]	IC50 [2] [µM]
O=C(Oc1ccc(-c2cc(=O)c3c(O)c(O)c(O)cc3o2)cc1)N1CCCCC1 [1-Piperidinecarboxylic acid-4-(5,6,7-trihydroxy-4-oxo-4H-1-benzopyran-2-yl)phenyl ester (7g)]	12.6	> 100
O=C(Oc1ccc(-c2cc(=O)c3c(O)c(O)c(O)cc3o2)cc1)N1CCCC1 [1-Pyrrolidinecarboxylic acid-4-(5,6,7-trihydroxy-4-oxo-4H-1-benzopyran-2-yl)phenyl ester (7e)]	40.7	> 100
O=C(Oc1ccc(-c2cc(=O)c3c(O)c(O)c(O)cc3o2)cc1)N1CCC(Cc2ccccc2)CC1 [4-(Phenylmethyl)-1-piperidinecarboxylic acid-4-(5,6,7-trihydroxy-4-oxo-4H-1-benzopyran-2-yl)phenyl ester (7h)]	62.2	35
O=C(Oc1ccc(-c2cc(=O)c3c(O)c(O)c(O)cc3o2)cc1)N1CCOCC1 [4-Morpholinecarboxylic acid-4-(5,6,7-trihydroxy-4-oxo-4H-1-benzopyran-2-yl)phenyl ester (7f)]	28.5	> 100
O=c1cc(-c2ccc(O)cc2)oc2cc(O)c(O)c(O)c12 [5,6,7-trihydroxy-2-(4-hydroxyphenyl)-4H-chromen-4-one]	> 100	> 100
CC(C)N(C(=O)Oc1ccc(-c2cc(=O)c3c(O)c(O)c(O)cc3o2)cc1)C(C)C [N,N-bis(1-methylethyl)carbamic acid-4-(5,6,7-trihydroxy-4-oxo-4H-1-benzopyran-2-yl)phenyl ester (7c)]	4	42
CCN(CC)C(=O)Oc1ccc(-c2cc(=O)c3c(O)c(O)c(O)cc3o2)cc1 [N,N-diethylcarbamic acid-4-(5,6,7-trihydroxy-4-oxo-4H-1-benzopyran-2-yl)phenyl ester (7b)]	1.2	22.1
CCN(CC)C(=O)Oc1ccc(-c2cc(=O)c3c(OC)c(OC)c(OC)cc3o2)cc1 [N,N-diethylcarbamic acid-4-(5,6,7-trimethoxy-4-oxo-4H-1-benzopyran-2-yl)phenyl ester (7i)]		8.2
CCN(CC)C(=O)Oc1ccc(-c2cc(=O)c3c(O)c(OC)c(OC)cc3o2)cc1 [N,N-diethylcarbamic acid-4-(5-hydroxy-6,7-dimethoxy-4-oxo-4H-1-benzopyran-2-yl)phenyl ester (7j)]		22.6
CCN(CC)C(=O)Oc1ccc(-c2cc(=O)c3c(OC(C)=O)c(OC(C)=O)c(OC(C)=O)cc3o2)cc1 [N,N-diethylcarbamic acid-4-[5,6,7-tris(acetyloxy)-4-oxo-4H-1-benzopyran-2-yl]phenyl ester (7k)]	1.5	50.3
CCN(CC)C(=O)Oc1ccc(-c2cc(=O)c3c(O)c(OC(C)=O)c(OC(C)=O)cc3o2)cc1 [N,N-diethylcarbamic acid-4-[6,7-bis(acetyloxy)-5-hydroxy-4-oxo-4H-1-benzopyran-2-yl]phenyl ester (7l)]	2	62.1
CN(C)C(=O)Oc1ccc(-c2cc(=O)c3c(O)c(O)c(O)cc3o2)cc1 [N,N-dimethylcarbamic acid-4-(5,6,7-trihydroxy-4-oxo-4H-1-benzopyran-2-yl)phenyl ester (7a)]	6.3	32
CCN(C)C(=O)Oc1ccc(-c2cc(=O)c3c(O)c(O)c(O)cc3o2)cc1 [N-ethyl-N-methylcarbamic acid-4-(5,6,7-trihydroxy-4-oxo-4H-1-benzopyran-2-yl)phenyl ester (7d)]	2.7	30.5
